# Values of other authors as cited in patent publication US20110294879A1, “METHOD OF TREATMENT OF FRAGILE X SYNDROME, DOWN'S SYNDROME, AUTISM AND RELATED DISORDERS” (XENOPORT, INC., priority 2010, published 2011).
# Experiments:
# [1] = test system: subjects with FXS and comorbid autistic disorder
# Fmr KO mice = details: Bear et al patents
# [2] = humans
smiles,measurement,setting,value
"CC(=O)NCCCS(=O)(=O)O [CAMPRAL, acamprosate calcium]",adverse GI events,[1]; fragile X subjects treated in the study,observed in the majority of fragile X subjects
same,Clinical Global Impression (CGI-I),"[1]; subjects with FXS and comorbid autistic disorder, Erickson et al 2010",significant symptomatic improvements
"Cc1cccc(C#Cc2ccccc2)n1 [MPEP, 2-methyl-6-(phenylethynyl)-pyridine]",behavioral and developmental phenotypes,Fmr KO mice,reverse behavioral and developmental phenotypes
"CC(=O)NCCCS(=O)(=O)O [acamprosate, 3-(Acetylamino)propylsulfonic acid]",oral bioavailability,[2],about 11%
Cc1nc2n(c(=O)c1CCN1CCC(c3noc4cc(F)ccc34)CC1)CCCC2 [risperidone],social isolation and communication,autistic children,not improved
same,irritability subscale of the Aberrant Behavior Checklist and Clinical Global Impressions-Improvement,autistic children; McCracken et al 2002,significant improvement
